Data published in patent US12110288B2, “MASP-2 inhibitors and methods of use” (Omeros Corporation, priority 2019, dated 2024).
Counter-ions that a name gives are not always drawn.

target: T1, MASP-2 (CCP1-CCP2-SP) (Homo sapiens, UniProt O00187); test: Enzymatic Assay for MASP-2; assay type: biochemical; conditions: fluorogenic substrate based on C2 cleavage site, room temperature, 20 mM HEPES pH 7.4
T1 construct: 15 μL of Enzyme MASP-2 (CCP1-CCP2-SP) in Assay Buffer
Method in brief: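 Fluorogenic substrate modelled on the C2 cleavage site, run at room temperature in 20 mM HEPES pH 7.4, 140 mM NaCl, 0.1% Tween 20; compounds were added from DMSO serial dilutions before enzyme and substrate. Reactions ran 20 min and were stopped with 0.1 M acetic acid before fluorescence was read. % activity was normalised to DMSO-only and no-enzyme controls; IC50 was taken as Ki, with tight- or slow-binding inhibitors handled separately.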

T1 sequence (O00187 445-686 limits assumed): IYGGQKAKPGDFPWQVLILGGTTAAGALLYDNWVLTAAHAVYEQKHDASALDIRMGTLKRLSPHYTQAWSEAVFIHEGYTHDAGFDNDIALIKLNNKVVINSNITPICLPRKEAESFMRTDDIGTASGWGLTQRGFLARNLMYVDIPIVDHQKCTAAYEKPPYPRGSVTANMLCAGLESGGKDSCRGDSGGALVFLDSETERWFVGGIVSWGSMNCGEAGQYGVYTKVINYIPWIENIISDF
T1 sequence (O00187 298-444 partner limits assumed): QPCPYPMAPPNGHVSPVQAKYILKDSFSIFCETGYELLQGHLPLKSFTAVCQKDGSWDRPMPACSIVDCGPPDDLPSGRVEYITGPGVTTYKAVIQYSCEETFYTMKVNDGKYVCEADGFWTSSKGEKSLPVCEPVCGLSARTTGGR

| Ki [nM] | Compound |
| --- | --- |
| < 500 | Cc1cccc(CCNc2ncc(-c3ccccc3)n(CC(=O)NCc3cc4cnccc4[nH]3)c2=O)c1 [Compound 137, N-((1H-Pyrrolo[3,2-c]pyridin-2-yl)methyl)-2-(3-((3-methylphenethyl)amino)-2-oxo-6-phenylpyrazin-1(2H)-yl)acetamide] |
| < 500 | Cc1ccc(CCNc2ncc(-c3ccccc3)n(CC(=O)NCc3cc4cnccc4[nH]3)c2=O)cc1 [Compound 138, N-((1H-Pyrrolo[3,2-c]pyridin-2-yl)methyl)-2-(3-((4-methylphenethyl)amino)-2-oxo-6-phenylpyrazin-1(2H)-yl)acetamide] |
| < 500 | O=C(Cn1c(-c2ccccc2)cnc(N2CC(c3ccccc3)C2)c1=O)NCc1cc2cnccc2[nH]1 [Compound 139, N-((1H-Pyrrolo[3,2-c]pyridin-2-yl)methyl)-2-(2-oxo-6-phenyl-3-(3-phenylazetidin-l-yl)pyrazin-1(2H)-yl)acetamide] |
| < 500 | O=C(Cn1c(-c2ccccc2)cnc(N2CCC(c3ccccc3)CC2)c1=O)NCc1cc2cnccc2[nH]1 [Compound 140, N-((1H-Pyrrolo[3,2-c]pyridin-2-yl)methyl)-2-(2-oxo-6-phenyl-3-(4-phenylpiperidin-l-yl)pyrazin-1(2H)-yl)acetamide] |
| < 500 | COc1ccccc1CCNc1ncc(-c2ccccc2)n(CC(=O)NCc2cc3cnccc3[nH]2)c1=O [Compound 141, N-((1H-Pyrrolo[3,2-c]pyridin-2-yl)methyl)-2-(3-((2-methoxyphenethyl)amino)-2-oxo-6-phenylpyrazin-1(2H)-yl)acetamide] |
| < 500 | COc1ccc(CCNc2ncc(-c3ccccc3)n(CC(=O)NCc3cc4cnccc4[nH]3)c2=O)cc1 [Compound 142, N-((1H-Pyrrolo[3,2-c]pyridin-2-yl)methyl)-2-(3-((4-methoxyphenethyl)amino)-2-oxo-6-phenylpyrazin-1(2H)-yl)acetamide] |
| < 500 | O=C(Cn1c(-c2ccccc2)cnc(N2CC[C@H](c3ccccc3)C2)c1=O)NCc1cc2cnccc2[nH]1 [Compound 143, (R)-N-((1H-Pyrrolo[3,2-c]pyridin-2-yl)methyl)-2-(2-oxo-6-phenyl-3-(3-phenylpyrrolidin-l-yl)pyrazin-1(2H)-yl)acetamide] |
| < 500 | O=C(Cn1c(-c2ccccc2)cnc(NCCc2ccccc2F)c1=O)NCc1cc2cnccc2[nH]1 [Compound 144, N-((1H-Pyrrolo[3,2-c]pyridin-2-yl)methyl)-2-(3-((2-fluorophenethyl)amino)-2-oxo-6-phenylpyrazin-1(2H)-yl)acetamide] |
| < 500 | O=C(Cn1c(-c2ccccc2)cnc(NCCc2cccc(F)c2)c1=O)NCc1cc2cnccc2[nH]1 [Compound 145, N-((1H-Pyrrolo[3,2-c]pyridin-2-yl)methyl)-2-(3-((3-fluorophenethyl)amino)-2-oxo-6-phenylpyrazin-1(2H)-yl)acetamide] |
| < 500 | O=C(Cn1c(-c2ccccc2)cnc(NCCc2ccc(F)cc2)c1=O)NCc1cc2cnccc2[nH]1 [Compound 146, N-((1H-Pyrrolo[3,2-c]pyridin-2-yl)methyl)-2-(3-((4-fluorophenethyl)amino)-2-oxo-6-phenylpyrazin-1(2H)-yl)acetamide] |
| < 500 | O=C(Cn1c(-c2ccccc2)cnc(NCc2ccc(F)cc2)c1=O)NCc1cc2cnccc2[nH]1 [Compound 147, N-((1H-Pyrrolo[3,2-c]Pyridin-2-yl)Methyl)-2-(3-((4-Fluorobenzyl)Amino)-2-Oxo-6-Phenylpyrazin-1(2H)-yl)Acetamide] |
| < 500 | CNc1ncc(-c2ccccc2)n(CC(=O)NCc2cc3cnccc3[nH]2)c1=O [Compound 148, N-((1H-Pyrrolo[3,2-c]pyridin-2-yl)methyl)-2-(3-(methylamino)-2-oxo-6-phenylpyrazin-1(2H)-yl)acetamide] |
| < 500 | O=C(Cn1c(-c2ccccc2)cnc(N2CCC2)c1=O)NCc1cc2cnccc2[nH]1 [Compound 149, N-((1H-Pyrrolo[3,2-c]pyridin-2-yl)methyl)-2-(3-(azetidin-1-yl)-2-oxo-6-phenylpyrazin-1(2H)-yl)acetamide] |
| < 500 | COc1ccc(CNc2ncc(-c3ccccc3)n(CC(=O)NCc3cc4cnccc4[nH]3)c2=O)cc1 [Compound 150, N-((1H-Pyrrolo[3,2-c]pyridin-2-yl)methyl)-2-(3-((4-methoxybenzyl)amino)-2-oxo-6-phenylpyrazin-1(2H)-yl)acetamide] |
| < 500 | O=C(Cn1c(-c2ccccc2)cnc(NCc2cccc(F)c2)c1=O)NCc1cc2cnccc2[nH]1 [Compound 151, N-((1H-Pyrrolo[3,2-c]pyridin-2-yl)methyl)-2-(3-((3-fluorobenzyl)amino)-2-oxo-6-phenylpyrazin-1(2H)-yl)acetamide] |
| < 500 | O=C(Cn1c(-c2ccccc2)cnc(NCc2cccc(C(F)(F)F)c2)c1=O)NCc1cc2cnccc2[nH]1 [Compound 152, N-((1H-Pyrrolo[3,2-c]pyridin-2-yl)methyl)-2-(2-oxo-6-phenyl-3-((3-(trifluoromethyl)benzyl)amino)pyrazin-1(2H)-yl)acetamide] |
| < 500 | COc1cccc(CNc2ncc(-c3ccccc3)n(CC(=O)NCc3cc4cnccc4[nH]3)c2=O)c1 [Compound 153, N-((1H-Pyrrolo[3,2-c]pyridin-2-yl)methyl)-2-(3-((3-methoxybenzyl)amino)-2-oxo-6-phenylpyrazin-1(2H)-yl)acetamide] |
| < 500 | O=C(Cn1c(-c2ccccc2)cnc(NCc2cc(F)cc(F)c2)c1=O)NCc1cc2cnccc2[nH]1 [Compound 154, N-((1H-Pyrrolo[3,2-c]pyridin-2-yl)methyl)-2-(3-((3,5-difluorobenzyl)amino)-2-oxo-6-phenylpyrazin-1(2H)-yl)acetamide] |
| < 500 | Cc1cccc(CNc2ncc(-c3ccccc3)n(CC(=O)NCc3cc4cnccc4[nH]3)c2=O)c1 [Compound 155, N-((1H-Pyrrolo[3,2-c]pyridin-2-yl)methyl)-2-(3-((3-methylbenzyl)amino)-2-oxo-6-phenylpyrazin-1(2H)-yl)acetamide] |
| < 500 | C[C@H](Nc1ncc(-c2ccccc2)n(CC(=O)NCc2cc3cnccc3[nH]2)c1=O)c1ccccc1 [Compound 156, (S)-N-((1H-Pyrrolo[3,2-c]pyridin-2-yl)methyl)-2-(2-oxo-6-phenyl-3-((1-phenylethyl)amino)pyrazin-1(2H)-yl)acetamide] |
| > 10000 | CC(C)Nc1cnc(N(CCc2ccccc2)CCc2ccccc2)c(=O)n1CC(=O)NCc1cc2cnccc2[nH]1 [Compound 159] |
| 2500 to 10000 | CC(C)Nc1cnc(NCCc2ccccc2)c(=O)n1CC(=O)NCc1cc2cnccc2[nH]1 [Compound 160] |
| < 500 | Cn1cc(NCCc2ccccc2)c(=O)n(CC(=O)NCc2cc3cnccc3[nH]2)c1=O [Compound 161, N-((1H-Pyrrolo[3,2-c]Pyridin-2-yl)Methyl)-2-(3-Methyl-2,6-Dioxo-5-(Phenethylamino)-3,6-Dihydropyrimidin-1(2H)-yl)Acetamide] |
| < 500 | COC(=O)[C@H](Cc1ccc(O)cc1)Nc1ncc(-c2ccccc2)n(CC(=O)NCc2cc3cnccc3[nH]2)c1=O [Compound 163, Methyl (4-(2-(((1H-pyrrolo[3,2-c]pyridin-2-yl)methyl)amino)-2-oxoethyl)-3-oxo-5-phenyl-3,4-dihydropyrazin-2-yl)-L-tyrosinate trifluoroacetate] |

| Compound | Ki [nM] |
| --- | --- |
| CCCCOc1cnc(NCCc2ccccc2)c(=O)n1CC(=O)NCc1cc2cnccc2[nH]1 [Compound 162, N-((1H-Pyrrolo[3,2-c]Pyridin-2-yl)Methyl)-2-(6-Butoxy-2-Oxo-3-(Phenethylamino)Pyrazin-1(2H)-yl)Acetamide] | < 500 |
